Laboratory results reported in patent US20250092050A1, “1-AMINOBENZO[4,5]IMIDAZO[1,2-A]PYRAZINE-3-FORMAMIDE COMPOUND, AND PREPARATION THEREFOR AND USE THEREOF” (SUN YAT-SEN UNIVERSITY, priority 2022, published 2025).
Where two headings read alike, the source gives them in different places.

Target: adenosine A2A receptor (Homo sapiens, UniProt P29274)
Assay: Binding to the adenosine A2A receptor: displacement of radioligand [3H]-ZM241385 from membrane protein
Details: compound 10^-4 M, 1 nM [3H]-ZM241385
Experimental: The specific process was as follows: A membrane protein solution (60 μg/tube, containing ADA 2 mg/mL) and a radioligand 1 nM [3H]-ZM241385 were added to each tube. Different compounds with the concentration of 10^−4 M were added into the compound tubes respectively, shaken to mix uniformly, incubated at 37° C. for 30 minutes and the reaction was terminated in a water bath. Free and bound ligands were separated by suction filtration under negative pressure using GF/C glass fiber filter paper, washed three times with precooled 50 mM Tris-HCl, about 4 mL each time. Film was removed and placed upside down on the tray (i.e., with the grid side facing up), and baked for 3 minutes until dried. Dried small circular filter membrane was put into the liquid scintillation tube in sequence, and 2 mL of scintillation solution was added. [3H] count was then performed in a Multifunction Liquid Scintillation Counter. Each junction point was provided with triple tubes. and the average value was taken. Finally. data analysis was carried out to calculate the inhibition rate of the compound on the adenosine AzA receptor: […]

[1] = membrane protein 60 μg/tube, 37° C., 30 minutes, average of triple tubes, read-out: Adenosine A2A receptor inhibition rate
[2] = read-out: inhibition rate on adenosine A2A receptors (text summary of Table 1)

adenosine A2A receptor, sequence (P29274 whole entry): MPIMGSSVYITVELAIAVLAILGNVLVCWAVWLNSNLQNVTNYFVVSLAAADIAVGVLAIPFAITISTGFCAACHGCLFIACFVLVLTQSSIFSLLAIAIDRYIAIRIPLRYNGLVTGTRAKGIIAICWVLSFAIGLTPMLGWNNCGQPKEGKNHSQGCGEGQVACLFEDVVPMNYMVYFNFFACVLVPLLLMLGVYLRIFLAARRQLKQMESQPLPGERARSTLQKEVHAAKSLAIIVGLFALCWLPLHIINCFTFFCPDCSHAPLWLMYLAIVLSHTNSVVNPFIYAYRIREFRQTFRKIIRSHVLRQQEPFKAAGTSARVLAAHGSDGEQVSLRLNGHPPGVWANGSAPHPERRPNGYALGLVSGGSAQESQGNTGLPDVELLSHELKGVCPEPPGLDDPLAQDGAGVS

Compound | inhibition at 100 µM [1] | inhibition at 100 µM [2] | Adenosine A2A receptor inhibition rate (membrane protein 60 μg/tube, 37° C., 30 minutes, average of triple tubes)
CCCCCNC(=O)c1cn2c(nc3ccccc32)c(N)n1 [Compound 14b] | 71 ± 4.02% |  | 
CC(NC(=O)c1cn2c(nc3ccccc32)c(N)n1)c1ccccn1 (stereo not drawn) [Compound 14u] | 86.5 ± 1.02% | > 80% | 
CC(NC(=O)c1cn2c(nc3ccccc32)c(N)n1)c1cccc2cccnc12 (stereo not drawn) [Compound 14w] |  | > 70% | 78.27 ± 2.31%
CC(C)(NC(=O)c1cn2c(nc3ccccc32)c(N)n1)c1ccccn1 [Compound 14x] | 75.3 ± 4.07% | > 70% | 

Now from value to compound:

inhibition at 100 µM [1] | inhibition at 100 µM [2] | Adenosine A2A receptor inhibition rate (membrane protein 60 μg/tube, 37° C., 30 minutes, average of triple tubes) | Compound
65.6 ± 4.23% |  |  | Nc1nc(C(=O)NCCO)cn2c1nc1ccccc12 [Compound 14f]
61.6 ± 3.91% |  |  | CC(NC(=O)c1cn2c(nc3ccccc32)c(N)n1)c1cccc2cccnc12 (stereo not drawn) [Compound 14v]
